Test results: PubChem BioAssay AID248 (DTP/NCI, 2004)
“And” between values parts separate entries of the source, which are not always exact repeats. Identical values can stand only once. Toxic doses and inconclusive results are not listed. No stated cut-off is given here; in the data, active means T/C of 150% or more; inactive means T/C below 125%. Square brackets hold non-standard residues; d marks the D form. Peptide text beside a SMILES is read from it. * marks the point of attachment. ξ: configuration not given here. Pentanoyl = CCCCC(=O)*; ξP = O=C(O)C1CCCN1; Ava = NCCCCC(=O)O

Test system: L1210 leukemia ip in BDF1 mice, survival T/C
Assay: NCI In Vivo Anticancer Drug Screen. Data for tumor model L1210 Leukemia (intraperitoneal) in B6D2F1 (BDF1) mice
Settings: endpoint: mean survival time, higher = longer survival
Outline: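 Read-out is survival time, reported as the treated-group measurement over the vehicle-control measurement.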

[1] = dose: 100.0 mg/kg/injection, schedule: Q01DX001 (ip), vehicle: saline
[2] = dose: 100.0 mg/kg/injection, schedule: Q01DX009 (ip), vehicle: saline
[3] = dose: 200.0 mg/kg/injection, schedule: Q01DX001 (ip), vehicle: saline
[4] = dose: 200.0 mg/kg/injection, schedule: Q01DX009 (ip), vehicle: saline
[5] = dose: 400.0 mg/kg/injection, schedule: Q01DX001 (ip), vehicle: saline
[6] = dose: 100.0 mg/kg/injection, schedule: Q04DX003 (ip), vehicle: saline
[7] = dose: 200.0 mg/kg/injection, schedule: Q04DX003 (ip), vehicle: saline
[8] = dose: 400.0 mg/kg/injection, schedule: Q04DX003 (ip), vehicle: saline
[9] = dose: 100.0 mg/kg/injection, schedule: Q01DX001 (ip), vehicle: carboxymethylcellulose (CMC)
[10] = dose: 200.0 mg/kg/injection, schedule: Q01DX001 (ip), vehicle: carboxymethylcellulose (CMC)
[11] = dose: 400.0 mg/kg/injection, schedule: Q01DX001 (ip), vehicle: carboxymethylcellulose (CMC)
[12] = dose: 100.0 mg/kg/injection, schedule: Q01DX009 (ip), vehicle: Klucel (hydroxypropylcellulose) (HPC)
[13] = dose: 100.0 mg/kg/injection, schedule: Q04DX003 (ip), vehicle: Klucel (hydroxypropylcellulose) (HPC)
[14] = dose: 200.0 mg/kg/injection, schedule: Q01DX009 (ip), vehicle: Klucel (hydroxypropylcellulose) (HPC)
[15] = dose: 200.0 mg/kg/injection, schedule: Q04DX003 (ip), vehicle: Klucel (hydroxypropylcellulose) (HPC)
[16] = dose: 400.0 mg/kg/injection, schedule: Q01DX009 (ip), vehicle: Klucel (hydroxypropylcellulose) (HPC)
[17] = dose: 400.0 mg/kg/injection, schedule: Q04DX003 (ip), vehicle: Klucel (hydroxypropylcellulose) (HPC)

Measured: T/C

Nc1nc(N)c2nc(NCc3ccc(C(=O)NC(CCC(=O)O)C(=O)O)cc3)cnc2n1 (stereo not given)
inactive: [1] 100 % of control | [2] 117 % of control | dose: 100.0 mg/kg/injection, schedule: Q04DX002 (ip), vehicle: saline 103 % of control and 105 % of control | [3] 105 % of control | [4] 117 % of control | dose: 200.0 mg/kg/injection, schedule: Q04DX002 (ip), vehicle: saline 103 % of control and 107 % of control | [5] 96 % of control | dose: 400.0 mg/kg/injection, schedule: Q04DX002 (ip), vehicle: saline 107 % of control and 113 % of control

CC(C(N)=O)N1C(=O)C2C3CCC(C3)C2C1=O (stereo not given)
inactive: [6] 103 % of control | [7] 91 % of control | [8] 86 % of control

CC(=O)OC1=C(OC(C)=O)N(S(=O)(=O)c2ccc(C)cc2)CCc2ccccc21
inactive: [9] 97 % of control | [10] 94 % of control | [11] 100 % of control

CN(CCC(=O)c1cccc2ccccc12)Cc1ccccc1
inactive: dose: 50.0 mg/kg/injection, schedule: Q01DX009 (ip), vehicle: Klucel (hydroxypropylcellulose) (HPC) 98 % of control | [12] 97 % of control | [13] 100 % of control | [14] 92 % of control | [15] 91 % of control | [16] 95 % of control | [17] 100 % of control

Cc1cc(Cl)ccc1OC(=O)Nc1cccc(Cl)c1Cl
inactive: [12] 102 % of control | [14] 89 % of control | [16] 94 % of control

CC12C(c3ccccc3)=C(c3ccccc3)C(C)(C3C(=O)OC(=O)C31)C1C(=O)OC(=O)C12 (stereo not given)
inactive: dose: 100.0 mg/kg/injection, schedule: Q01DX001 (ip), vehicle: Klucel (hydroxypropylcellulose) (HPC) 88 % of control | dose: 200.0 mg/kg/injection, schedule: Q01DX001 (ip), vehicle: Klucel (hydroxypropylcellulose) (HPC) 100 % of control | dose: 400.0 mg/kg/injection, schedule: Q01DX001 (ip), vehicle: Klucel (hydroxypropylcellulose) (HPC) 100 % of control

c1ccc(-c2cc(-c3ccccc3)n(-c3ccccc3)c2)cc1
inactive: dose: 100.0 mg/kg/injection, schedule: Q01DX001 (ip), vehicle: saline with Tween-80 87 % of control | dose: 200.0 mg/kg/injection, schedule: Q01DX001 (ip), vehicle: saline with Tween-80 89 % of control

CCOC(=O)CNc1cccc(F)c1C
inactive: dose: 100.0 mg/kg/injection, schedule: Q04DX002 (ip), vehicle: Klucel (hydroxypropylcellulose) (HPC) 104 % of control | dose: 200.0 mg/kg/injection, schedule: Q04DX002 (ip), vehicle: Klucel (hydroxypropylcellulose) (HPC) 104 % of control | dose: 400.0 mg/kg/injection, schedule: Q04DX002 (ip), vehicle: Klucel (hydroxypropylcellulose) (HPC) 115 % of control

O=C(Nc1cccc2ccccc12)c1ccc(C(=O)Nc2cccc3ccccc23)c(C(=O)O)c1
inactive: dose: 50.0 mg/kg/injection, schedule: Q04DX002 (ip), vehicle: gum acacia 94 % of control | dose: 100.0 mg/kg/injection, schedule: Q04DX002 (ip), vehicle: gum acacia 90 % of control | dose: 200.0 mg/kg/injection, schedule: Q04DX002 (ip), vehicle: gum acacia 94 % of control

O=C(O)CC(NS(=O)(=O)Cc1ccccc1)C(=O)O (stereo not given)
inactive: dose: 100.0 mg/kg/injection, schedule: Q04DX003 (ip), vehicle: other 94 % of control | dose: 200.0 mg/kg/injection, schedule: Q04DX003 (ip), vehicle: other 92 % of control | dose: 400.0 mg/kg/injection, schedule: Q04DX003 (ip), vehicle: other 92 % of control

COc1cc(-c2nc(-c3ccc(N=Cc4ccc(N(CCOS(C)(=O)=O)CCOS(C)(=O)=O)cc4C)cc3)cs2)cc(OC)c1OC
inactive: dose: 25.0 mg/kg/injection, schedule: Q04DX003 (ip), vehicle: saline with Tween-80 102 % of control | dose: 50.0 mg/kg/injection, schedule: Q04DX003 (ip), vehicle: saline with Tween-80 102 % of control | dose: 66.0 mg/kg/injection, schedule: Q04DX003 (ip), vehicle: saline with Tween-80 115 % of control and 120 % of control | dose: 150.0 mg/kg/injection, schedule: Q04DX003 (ip), vehicle: saline with Tween-80 96 % of control and 89 % of control | dose: 200.0 mg/kg/injection, schedule: Q04DX003 (ip), vehicle: saline with Tween-80 110 % of control

O=C(Nc1ccc(S(=O)(=O)F)cc1)/C(=C/c1ccc([N+](=O)[O-])cc1)c1ccccc1
inactive: dose: 12.5 mg/kg/injection, schedule: Q01DX009 (ip), vehicle: saline with Tween-80 102 % of control | dose: 25.0 mg/kg/injection, schedule: Q01DX009 (ip), vehicle: saline with Tween-80 109 % of control | dose: 50.0 mg/kg/injection, schedule: Q01DX009 (ip), vehicle: saline with Tween-80 98 % of control

c1ccc2c(C3CCCCN3)c[nH]c2c1 (stereo not given)
inactive: dose: 12.5 mg/kg/injection, schedule: Q01DX009 (ip), vehicle: saline 88 % of control | dose: 25.0 mg/kg/injection, schedule: Q01DX009 (ip), vehicle: saline 90 % of control | dose: 25.0 mg/kg/injection, schedule: Q04DX003 (ip), vehicle: saline 103 % of control | dose: 50.0 mg/kg/injection, schedule: Q04DX003 (ip), vehicle: saline 92 % of control | [1] 97 % of control

CCOC(=O)NC1=C(Cl)C(=O)C(NC(=O)OCC)=C(Cl)C1=O
inactive: [13] 102 % of control | [15] 92 % of control

COc1ccc(C(CC(C)=O)c2c(O)c3ccccc3oc2=O)cc1OC (stereo not given)
inactive: dose: 1.56 mg/kg/injection, schedule: Q01DX009 (ip), vehicle: water 102 % of control | dose: 3.12 mg/kg/injection, schedule: Q01DX009 (ip), vehicle: water 97 % of control | dose: 6.25 mg/kg/injection, schedule: Q01DX009 (ip), vehicle: water 98 % of control | dose: 12.5 mg/kg/injection, schedule: Q01DX009 (ip), vehicle: water 93 % of control | dose: 25.0 mg/kg/injection, schedule: Q01DX009 (ip), vehicle: water 93 % of control and 86 % of control

N/C(=N/N=C/c1cc(Cl)ccc1O)N/N=C\c1cc(Cl)ccc1O
inactive: dose: 15.0 mg/kg/injection, schedule: Q01DX Z (ip), vehicle: methylcellulose (MC) 107 % of control | dose: 30.0 mg/kg/injection, schedule: Q01DX Z (ip), vehicle: methylcellulose (MC) 104 % of control | dose: 60.0 mg/kg/injection, schedule: Q01DX Z (ip), vehicle: methylcellulose (MC) 119 % of control | dose: 60.0 mg/kg/injection, schedule: Q01DX Z (oral), vehicle: methylcellulose (MC) 94 % of control | dose: 120.0 mg/kg/injection, schedule: Q01DX Z (ip), vehicle: methylcellulose (MC) 108 % of control | dose: 120.0 mg/kg/injection, schedule: Q01DX Z (oral), vehicle: methylcellulose (MC) 93 % of control | dose: 240.0 mg/kg/injection, schedule: Q01DX Z (oral), vehicle: methylcellulose (MC) 100 % of control

Nc1ccccc1O
inactive: dose: 12.5 mg/kg/injection, schedule: Q04DX003 (ip), vehicle: Klucel (hydroxypropylcellulose) (HPC) 100 % of control | dose: 25.0 mg/kg/injection, schedule: Q04DX003 (ip), vehicle: Klucel (hydroxypropylcellulose) (HPC) 100 % of control | dose: 50.0 mg/kg/injection, schedule: Q04DX003 (ip), vehicle: Klucel (hydroxypropylcellulose) (HPC) 92 % of control | [2] 110 % of control | [4] 105 % of control | dose: 400.0 mg/kg/injection, schedule: Q01DX009 (ip), vehicle: saline 108 % of control | dose: 600.0 mg/kg/injection, schedule: Q01DX009 (ip), vehicle: saline 92 % of control

CCCCC(=O)NCC(=O)N1CCCC1C(=O)NCCCCC(=O)OC (stereo not given) (Pentanoyl-Gly-[ξP]-[Ava]-OMe)
inactive: [1] 98 % of control | [3] 95 % of control | [5] 95 % of control

CCOC(=O)NC(=S)Nc1ncn[nH]1
inactive: [6] 96 % of control | [7] 97 % of control | [8] 103 % of control

CN(C)c1ccc(/C=C2\N=C(c3ccc([N+](=O)[O-])cc3)OC2=O)cc1
inactive: [12] 96 % of control | [14] 101 % of control | [16] 93 % of control

Cc1cccc(NC(=O)c2cccc(C(=O)Nc3cccc(C)c3C)c2)c1C
inactive: [12] 96 % of control | [13] 88 % of control | [14] 100 % of control | [15] 88 % of control | [16] 96 % of control | [17] 93 % of control

O=C1CC(C(=O)Nc2ccccc2)C(c2ccccc2)(c2ccccc2)O1 (stereo not given)
inactive: [9] 97 % of control | [10] 106 % of control | [11] 95 % of control
